Literature values as cited in patent publication US20250127711A1, “COMPOSITION AND METHOD FOR TREATING FUNGAL SKIN CONDITIONS AND INFLAMMATION” (CMPD Licensing, LLC, priority 2016, published 2025).

Experiments:
[1] = system: mineralocorticoid activity

| SMILES | mineralocorticoid activity [1] | glucocorticoid activity (glucocorticoid activity) | solubility in ethanol (ethanol) | solubility in water (water) |
| --- | --- | --- | --- | --- |
| C[C@H]1C[C@H]2[C@@H]3CCC4=CC(=O)C=C[C@]4(C)[C@@]3(F)[C@@H](O)C[C@]2(C)[C@@]1(O)C(=O)CCl [Clobetasol] | slight degree | high degree |  |  |
| CC(=O)OCC(=O)[C@@]12OC(C)(C)O[C@@H]1C[C@H]1[C@@H]3C[C@H](F)C4=CC(=O)C=C[C@]4(C)[C@@]3(F)[C@@H](O)C[C@@]12C [Fluocinonide] |  |  | slightly soluble | practically insoluble |
